Measured values: ChEMBL document CHEMBL1138959, “Novel class of cyclophosphamide prodrug: cyclophosphamide spiropiperaziniums (CPSP)” (Bioorg Med Chem Lett, 2006)

Tests used:
H22 [1] = experiment: Antitumor activity against H22 cells implanted in mouse at 30 mg/kg, ip; type: functional; details: route intraperitoneal; for inhibition in vivo at 30 mg/kg: Mus musculus, H22, ip
CCRF S-180 [2] = experiment: Antitumor activity against S180 cells implanted in mouse at 30 mg/kg, ip; type: functional; details: route intraperitoneal; for inhibition in vivo at 30 mg/kg: Mus musculus, CCRF S-180, ip
CCRF S-180 [3] = experiment: Antitumor activity against S180 cells implanted in mouse at 60 mg/kg, ip; type: functional; details: CCRF S-180, ip, route intraperitoneal
H22 [4] = experiment: Antitumor activity against H22 cells implanted in mouse at 15 mg/kg, ip; type: functional; details: route intraperitoneal
H22 [5] = experiment: Antitumor activity against H22 cells implanted in mouse at 60 mg/kg, ip; type: functional; details: route intraperitoneal
[6] = Toxicity in ip dosed mouse; type: organism-based; details: in vivo
CCRF S-180 [7] = experiment: Antitumor activity against S180 cells implanted in mouse at 15 mg/kg, ip; type: functional; details: CCRF S-180, ip, route intraperitoneal

With CN1CC[N+]2(CC1)CCN(P1(=O)NCCCO1)CC2.[Br-] (centres undefined) the Inhibition (H22 [1]) was 11.6% and the Inhibition (CCRF S-180 [2]) was 18.72%.

C[N+]1(Cc2ccccc2)CCN(P2(=O)NCCCO2)CC1 (centres undefined) showed an inhibition in vivo at 30 mg/kg (H22 [1]) of -6.63% and an inhibition in vivo at 30 mg/kg (CCRF S-180 [2]) of -3.28%.

O=P1(N2CC[N+]3(CCNCC3)CC2)NCCCO1 (centres undefined) gave an inhibition in vivo at 30 mg/kg (H22 [1]) of 8.64% and an inhibition in vivo at 30 mg/kg (CCRF S-180 [2]) of 10.7%.

Work on O=P1(N2CC[N+]3(CCCCCC3)CC2)NCCCO1.[Cl-] (centres undefined) yielded an inhibition in vivo at 60 mg/kg (CCRF S-180 [3]) of 53.4%, an inhibition in vivo at 15 mg/kg (H22 [4]) of 17.2% and an inhibition in vivo at 60 mg/kg (H22 [5]) of 51.3%. For the same compound, the LD50 [6] was 239 mg/kg, the inhibition in vivo at 30 mg/kg (H22 [1]) was 48.4% and the inhibition in vivo at 30 mg/kg (CCRF S-180 [2]) was 36%. For the same compound, the inhibition in vivo at 15 mg/kg (CCRF S-180 [7]) was 38.2%.

CN1CC[N+]2(CC1)CCN(P1(=O)NCCCO1)CC2.[Cl-] (centres undefined) gave an inhibition in vivo at 60 mg/kg (CCRF S-180 [3]) of 55.2%, an inhibition in vivo at 15 mg/kg (H22 [4]) of 24.4% and an inhibition in vivo at 60 mg/kg (H22 [5]) of 38%. It also gave an LD50 [6] of 1200 mg/kg, an Inhibition (H22 [1]) of 41.66% and an Inhibition (CCRF S-180 [2]) of 42.31%. It also gave an inhibition in vivo at 15 mg/kg (CCRF S-180 [7]) of 37.5%.

Compound O=P1(N2CC[N+]3(CCCCC3)CC2)NCCCO1 (centres undefined) has an inhibition in vivo at 30 mg/kg (H22 [1]) of 12.8% and an inhibition in vivo at 30 mg/kg (CCRF S-180 [2]) of 39.9%.

CC1CC[N+]2(CC1)CCN(P1(=O)NCCCO1)CC2 (centres undefined) showed an inhibition in vivo at 30 mg/kg (H22 [1]) of 32.2% and an inhibition in vivo at 30 mg/kg (CCRF S-180 [2]) of -13.3%.

O=P1(N2CC[N+]3(CCCC3)CC2)NCCCO1 (centres undefined) showed an inhibition in vivo at 30 mg/kg (H22 [1]) of 17.3% and an inhibition in vivo at 30 mg/kg (CCRF S-180 [2]) of 26.7%.

O=P1(N2CC[N+]3(CCOCC3)CC2)NCCCO1 (centres undefined) showed an inhibition in vivo at 30 mg/kg (H22 [1]) of 32.5% and an inhibition in vivo at 30 mg/kg (CCRF S-180 [2]) of -27.6%.

Compound O=P1(N2CC[N+]3(CCN(Cc4ccccc4)CC3)CC2)NCCCO1 (centres undefined) has an inhibition in vivo at 30 mg/kg (CCRF S-180 [2]) of 33.7%.

Compound O=P1(N(CCCl)CCCl)NCCCO1 (centres undefined) [CYCLOPHOSPHAMIDE ANHYDROUS] has an LD50 [6] of 387 mg/kg, an inhibition in vivo at 30 mg/kg (H22 [1]) of 72% and an inhibition in vivo at 30 mg/kg (CCRF S-180 [2]) of 72.9%.

With C[N+]1(C)CCN(P2(=O)NCCCO2)CC1 (centres undefined) the inhibition in vivo at 30 mg/kg (H22 [1]) was 28.8% and the inhibition in vivo at 30 mg/kg (CCRF S-180 [2]) was 33.5%.

For CC1C[N+]2(CCN(P3(=O)NCCCO3)CC2)CC(C)O1 (centres undefined), the inhibition in vivo at 30 mg/kg (H22 [1]) was 20.6% and the inhibition in vivo at 30 mg/kg (CCRF S-180 [2]) was 46.6%.

Compound O=P1(N2CC[N+]3(CCc4ccccc4C3)CC2)NCCCO1 (centres undefined) has an inhibition in vivo at 30 mg/kg (CCRF S-180 [2]) of 18.9%.

CN1CC[N+]2(CC1)CCN(P1(=O)NCCCO1)CC2.[I-] (centres undefined) showed an Inhibition (H22 [1]) of 16.19% and an Inhibition (CCRF S-180 [2]) of 29.41%.
